How the values were obtained:
[1] = Metabolic stability in goat serum up to 24 hrs by HPLC analysis; format: ADME, Capra hircus
Neprilysin [2] = target: T1, Neprilysin (Homo sapiens, UniProt P08473); assay: Drug metabolism assessed as NEP 24.11 (unknown origin)-mediated Succinyl-Asp-Phe-MePhe-Gly-OH up to 24 hrs by HPLC analysis; format: ADME
Serum [3] = assay: Metabolic stability in rat serum up to 24 hrs by HPLC analysis; format: ADME, cell-free
NEP 24.11 (neprilysin) = NEP 24.11 (neprilysin) (Homo sapiens, UniProt P08473); assay: Drug metabolism assessed as NEP 24.11 (unknown origin)-mediated degradation up to 24 hrs by HPLC analysis; format: ADME; details: NEP 24.11 (neprilysin) enzyme, read-out: Drug metabolism
Sequence of NEP 24.11 (neprilysin) (P08473 whole entry): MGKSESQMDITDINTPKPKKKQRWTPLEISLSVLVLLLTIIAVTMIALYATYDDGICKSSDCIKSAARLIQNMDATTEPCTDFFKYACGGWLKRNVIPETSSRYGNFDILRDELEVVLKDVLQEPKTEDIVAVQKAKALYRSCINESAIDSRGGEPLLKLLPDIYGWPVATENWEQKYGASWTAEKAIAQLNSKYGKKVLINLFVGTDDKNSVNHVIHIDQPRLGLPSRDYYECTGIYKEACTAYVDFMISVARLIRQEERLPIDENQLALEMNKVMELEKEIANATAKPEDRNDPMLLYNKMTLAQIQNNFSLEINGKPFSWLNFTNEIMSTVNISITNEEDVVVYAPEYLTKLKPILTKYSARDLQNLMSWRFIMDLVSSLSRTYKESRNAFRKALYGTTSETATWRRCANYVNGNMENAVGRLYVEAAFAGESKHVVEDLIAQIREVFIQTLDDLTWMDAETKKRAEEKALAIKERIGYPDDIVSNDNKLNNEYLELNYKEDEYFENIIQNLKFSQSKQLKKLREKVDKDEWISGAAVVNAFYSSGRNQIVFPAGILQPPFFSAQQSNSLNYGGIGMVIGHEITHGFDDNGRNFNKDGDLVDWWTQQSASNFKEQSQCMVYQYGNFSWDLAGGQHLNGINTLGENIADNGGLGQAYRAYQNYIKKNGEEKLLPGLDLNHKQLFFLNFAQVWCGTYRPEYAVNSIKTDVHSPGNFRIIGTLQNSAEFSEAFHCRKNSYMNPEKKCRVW

[4] = Agonist activity at goat NK3R; design: species or system Capra hircus
[5] = Induction of GnRH release in ovariectomized goat assessed as induction of multiple-unit activity volley measured as duration of effect at 200 nmol, iv as single dose; format: functional, Capra hircus
[6] = Agonist activity at cattle NK3R; design: species or system Bos taurus
[7] = Metabolic stability in pig hypothalamic extract by HPLC analysis; format: ADME, Sus scrofa, Hypothalamus
[8] = Metabolic stability in pig serum up to 24 hrs by HPLC analysis; format: ADME, Sus scrofa
Neprilysin [9] = target: T1, Neprilysin; assay: Drug metabolism assessed as NEP 24.11 (unknown origin)-mediated H-Leu-Met-NH2 up to 24 hrs by HPLC analysis; format: ADME
Serum [10] = assay: Metabolic stability in cattle serum up to 24 hrs by HPLC analysis; format: ADME, Bos taurus

T1 sequence (P08473 whole entry): as above

SMILES: CSCC[C@H](NC(=O)[C@H](CC(C)C)NC(=O)CNC(=O)[C@H](Cc1ccccc1)N(C)C(=O)[C@H](Cc1ccccc1)NC(=O)[C@H](CC(=O)O)NC(=O)CCC(=O)O)C(N)=O [SENKTIDE]
- Stability [1]: Stable
- Drug metabolism (Neprilysin [2]): metabolite_detected
- Stability (Serum [3]): Stable
- metabolised at 24 h (NEP 24.11 (neprilysin)): > 80%
- EC50 [4]: 12 nM
- Time [5]: 60.6 min
- EC50 [6]: 340 nM
- Stability [7]: Stable
- Stability [8]: Stable
- Drug metabolism (Neprilysin [9]): metabolite_detected
- Stability (Serum [10]): Stable

From ChEMBL document CHEMBL3352625, “Development of novel neurokinin 3 receptor (NK3R) selective agonists with resistance to proteolytic degradation” (J Med Chem, 2014)
